From US20180078615A1, “USE OF CCL2 TO INHIBIT ABNORMAL UTERINE BLEEDING” (UNIVERSITY OF SOUTH FLORIDA, priority 2015, published 2018)

Experiments:
endometrial VSMCs = assay: αSMA and PCNA double-immunostaining of endometrium of oophorectomized guinea pigs (OVX-GPs); format: in vivo, guinea pig; conditions: 21-d time-release pellets, mean±SEM
From the text: After receiving written informed consent at New York University under Institutional Review Board approval, paraffin sections were derived from banked paired endometrial tissues obtained before and after Depo therapy by […] biopsy from each reproductive age woman with regular menstrual cycles during the secretory phase (n=6). Based on an established animal model for LAPC-induced AUB in humans (9), nulliparous adult female pigmented GPs (weighing 525-775 g) were used in experimental procedures conforming to National Health and Medical Research Council Guidelines of Australia and approved by the Animal Ethics Committee of The University of Western Australia. GPs (n=24) were subjected to bilateral OVX and given subcutaneous 21-d time-release pellets (Innovative Research of America) containing MPA (50 mg/d; n=6) or 17β-Estradiol (E2) (0.1 mg/d; n=6), both MPA and E2 (n=6), or no pellets (n=6). On day 20 of exposure to the pellets, GPs were killed with pentobarbital and uterine tissues fixed in 10% formalin and processed for paraffin embedding. In vitro experiments used aortic VSMCs from premenopausal women (n=2) (Life Technologies). Paraffin sections (5 μm) from paired pre- vs. post-Depo treated human or GP endometria were deparaffinized, boiled in citrate buffer (pH: 6.0) and then incubated in methanol containing 3% H2O2. Following 10% normal horse serum blocking (Vector Labs), slides were incubated overnight at 4° C. with mouse anti-PCNA monoclonal antibody (EMD Millipore). After several rinses in Tris-buffered saline containing 0.1% tween-20 (TBS-T; pH 7.6) slides were then incubated with biotinylated anti-mouse IgG (Vector Labs) for 30 min, then with a streptavidin-peroxidase complex (Elite ABC kit; Vector Labs) for 30 min and with diaminobenzidine (DAB; Vector Labs) for 3 min. […] Slides were counterstained by Hematoxylin and evaluated by histological scoring (HSCORE), as described previously (34). (See details for HSCORE evaluation for αSMA immunoreactivity and PCNA quantitation in SI Materials and Methods). Staining intensity for α-SMA was semiquantitatively evaluated by Q:1 HSCORE (1). […] An HSCORE value was determined for each specimen by using the formula HSCORE=ΣPi (i+1), where Pi is the percentage of stained cells in each intensity category (i.e., i=1, 2, or 3). Quantitation of PCNA immunostaining was determined by counting the number of PCNA^+ (brown) and PCNA^- cell nuclei (blue) in VSMCs (αSMA immunostained cells) and obtaining the ratio of numbers of PCNA^+ cell nuclei to total αSMA^+ cells. For each slide, three different fields were evaluated microscopically at 200× magnification. Slides were evaluated at different times by two investigators blinded to tissue source, and the average HSCORE or percentage of cells with PCNA^+ nuclei to total αSMA^+ cells used.

STAT1 = assay: Western blot of total and phosphorylated STAT1 in VSMCs; format: cell-based, human; conditions: VSMCs treated for 15 min, vs control
Method: VSMCs were thawed and cultured in medium 231 (M231; Life Technologies) with smooth muscle growth supplement (5% FBS; 2 ng/mL human basic fibroblast growth factor, 0.5 ng/mL human epidermal growth factor, 5 ng/mL heparin, 0.2 μg/mL insulin and 5 μg/mL BSA; Life Technologies) with 100 U/mL penicillin, 100 μg/mL streptomycin, 0.25 μg/mL fungizone. Confluent VSMCs were washed twice with 1×PBS to remove residual serum, passaged in 96-well or 6-well plates and incubated in parallel in M231 with 1% charcoal striped FBS with 0.1% ethanol (vehicle, control) or 10^−7 M MPA (Sigma-Aldrich) or 10^−7 M ETO (Organon) or 10^−7 M P4 (Sigma-Aldrich) for 15 min, 6, 48, and 72 h. VSMCs were then washed with ice-cold PBS and stored at −80° C. for further RNA and protein analyses.
To confirm inhibition of STAT1 signaling in LAPC-treated VSMCs, detected by IPA, cell lysates from VSMCs were run in 10% Tris-HCl gel (Bio-Rad). Transfer onto membrane, blocking, washing, chemiluminescence development, and stripping/reprobing were performed as described previously (35). The membrane was incubated with antitotal STAT1 or antiphospho-STAT1 rabbit monoclonal antibodies (Cell Signaling) and then with peroxidase-conjugated goat anti-rabbit IgG (Vector Labs). Signals were developed by a chemiluminescence kit (GE Healthcare).

Compound	PCNA+ endometrial VSMCs (endometrial VSMCs; n=6, control 11.2%±2.3)	αSMA HSCORE (endometrial VSMCs; n=6, control 135.2±26.0)	phosphorylated levels of STAT1 (STAT1)	total STAT1 levels (STAT1)
CC(=O)O[C@]1(C(C)=O)CC[C@H]2[C@@H]3C[C@H](C)C4=CC(=O)CC[C@]4(C)[C@H]3CC[C@@]21C [MPA, medroxyprogesterone acetate]	10.2%±2.8	83.50±9.0	partially reduced	not
C#C[C@]1(O)CC[C@H]2[C@@H]3CCC4=CC(=O)CC[C@@H]4[C@H]3C(=C)C[C@@]21CC [ETO, etonogestrel]			partially reduced	not
